In patent publication US20240238425A1, “HSD17B13 Inhibitors and/or Degraders” (Pfizer Inc., priority 2022, published 2024):

Test system: HiBiT-HSD17β13 fusion protein (N-terminal HiBiT-tagged HSD17β13 isoform D) in Huh7 HiBiT-HSD17β13 OE cells
Assay: Whole-cell Huh7-HSD17B13 HiBiT assay (degrader potency and maximal efficacy, luminescence readout)
Format: cell-based, human
Conditions: 24 hour incubation, geometric mean, * = geometric mean for all forms tested (parent and salt forms); for DC50: read-out: Huh7_HIBIT-HSD17β13_DC50 GMean DC50; for Huh7_HIBIT-HSD17β13_DC50 GMean Asymptote Maximum: max. concentration 1 μM
Procedure: Degrader potency and maximal efficacy of test compounds were determined using a whole-cell Huh7-HSD17B13 HiBiT assay, utilizing a luminescence readout. A HiBiT tag was fused to the N-terminus of HSD17β13, and therefore the HiBiT luminescence signal produced in the assay was proportional to the level of HiBiT-HSD17β13 fusion protein in a sample.
A Huh7 HiBiT-HSD17β13 OE cell line was generated using electroporation with an N-terminal HiBiT-tagged HSD17β13 isoform D overexpression plasmid, followed by geneticin selection to produce a stable pool. Clones were created with varying HiBiT signals to optimize HiBiT HSD17 β13 ratios. A clone with similar HSD17β13 expression levels as human primary hepatocytes was selected for the compound screen.
Greiner 384-well white opaque, flat bottom, tissue culture treated plates (Greiner #781080) were used for both HiBiT and CTG assays. The treated plates were spotted with 25 nL of a compound which had been serial diluted 1 in 3.162 in 100% DMSO for an 11-point concentration response curve, with duplicate points at each concentration. The maximum concentration of the compounds was 1 mM, which was later diluted with cell suspension for a maximum concentration of 1 μM). High percentage effect (HPE) wells and zero percentage effect (ZPE) wells located in columns 1 and 24 were spotted with 25 nL of DMSO (Sigma #D2650) using an ECHO Acoustic Liquid Handler (Labcyte Echo 550 Series). Each plate was performed in duplicate.
The Huh7 HiBiT-HSD17β13 OE cells were plated on top of a compound or a DMSO control at 3,000 viable cells/well in 25 μL growth media (DMEM (Gibco #10569), 10% FBS HI (Gibco #16140), 1× Pen/Strep (Gibco #15070), 1×MEM Non-Essential Amino Acids (Gibco #11140), and 300 μg/mL Geneticin (Gibco #10131) in columns 2-24 of the plates. Huh7 parental cells were plated using the same parameters in column 1 (HPE) in the same culture medium, excluding Geneticin selection. Cells were incubated overnight with the compounds for 24 hours (with lid) at 37° C. ([…]).
Each assay was conducted after a 24 hour incubation period. In the HiBiT assay plates, 25 μL of complete Nano-Glo HiBiT Lytic detection system (Promega #PRN3040), consisting of HiBiT Lytic Buffer with the addition of 1:100 LgBiT Protein and 1:50 Substrate, was added to each well. In CTG counter screen plates, 25 μL of Cell Titer-Glo Luminescent Reagent (Promega #G7573) was added to each well. Both plates were centrifuged for 2 minutes at 1000 rpm and incubated at room temperature, in the dark, for 10 minutes. Then Luminescence was read using an EnVision Plate Reader (Perkin Elmer PE2103).
The raw data from the Envision Plate Reader was expressed as relative luminescence units (RLUs) for each well of the assay plates. Using HPE and ZPE controls, the % effect was calculated for each sample well as follows: Percent effect=[(sample RLU−HPE RLU)\(ZPE RLU−HPE RLU)]*100. The percent effect was plotted versus the compound concentration and a 50% degradation ([…]) was determined using a four-parameter logistic dose response equation. The raw data was analyzed using ABase (IDBS).

| SMILES | DC50 | Huh7_HIBIT-HSD17β13_DC50 GMean Asymptote Maximum |
| --- | --- | --- |
| Cl.Cn1c(=O)n(C2CCC(=O)NC2=O)c2ccc(CCCN3Cc4ccc(-c5ccc6cn(C7CCC(CNC(=O)c8cc(F)c(O)c(F)c8F)CC7)nc6c5)cc4C3)cc21 (racemic) [Example 1, N-{[(1r,4r)-4-{6-[2-(3-{1-[(3RS)-2,6-Dioxopiperidin-3-yl]-3-methyl-2-oxo-2,3-dihydro-1H-benzimidazol-5-yl}propyl)-2,3-dihydro-1H-isoindol-5-yl]-2H-indazol-2-yl}cyclohexyl]methyl}-2,3,5-trifluoro-4-hydroxybenzamide, hydrochloride salt] | 0.11 nM | 87* % |
| Cn1c(=O)n(C2CCC(=O)NC2=O)c2ccc(CCCN3Cc4ccc(-c5ccc6cn(C7CCC(CNC(=O)c8cc(F)c(O)c(F)c8F)CC7)nc6c5)nc4C3)cc21 (racemic) [Example 2, N-{[(1r,4r)-4-{6-[6-(3-{1-[(3RS)-2,6-Dioxopiperidin-3-yl]-3-methyl-2-oxo-2,3-dihydro-1H-benzimidazol-5-yl}propyl)-6,7-dihydro-5H-pyrrolo[3,4-b]pyridin-2-yl]-2H-indazol-2-yl}cyclohexyl]methyl}-2,3,5-trifluoro-4-hydroxybenzamide] | 0.16 nM | 83* % |
| Cl.Cn1c(=O)n(C2CCC(=O)NC2=O)c2ccc(CCCN3CCN(c4nccc(-c5nc(C67CCC(CNC(=O)c8cc(F)c(O)c(F)c8F)(CC6)CC7)no5)n4)CC3)cc21 (racemic) [Example 3, N-{[4-(5-{2-[4-(3-{1-[(3RS)-2,6-Dioxopiperidin-3-yl]-3-methyl-2-oxo-2,3-dihydro-1H-benzimidazol-5-yl}propyl)piperazin-1-yl]pyrimidin-4-yl}-1,2,4-oxadiazol-3-yl)bicyclo[2.2.2]octan-1-yl]methyl}-2,3,5-trifluoro-4-hydroxybenzamide, hydrochloride salt] | 0.19 nM | 84* % |
| Cn1c(=O)n(C2CCC(=O)NC2=O)c2ccc(CCCN3CCN(c4nccc(-c5nc(C67CCC(CNC(=O)c8cc(F)c(O)c(F)c8F)(CC6)CC7)cs5)n4)CC3)cc21.O=CO (racemic) [Example 4, N-{[4-(2-{2-[4-(3-{1-[(3RS)-2,6-Dioxopiperidin-3-yl]-3-methyl-2-oxo-2,3-dihydro-1H-benzimidazol-5-yl}propyl)piperazin-1-yl]pyrimidin-4-yl}-1,3-thiazol-4-yl)bicyclo[2.2.2]octan-1-yl]methyl}-2,3,5-trifluoro-4-hydroxybenzamide, formate salt] | 0.38 nM | 84% |
| Cn1c(=O)n(C2CCC(=O)NC2=O)c2ccc(CCCN3CCN(c4nccc(-c5csc(C67CCC(CNC(=O)c8cc(F)c(O)c(F)c8F)(CC6)CC7)n5)n4)CC3)cc21 (racemic) [Example 5, N-{[4-(4-{2-[4-(3-{1-[(3RS)-2,6-Dioxopiperidin-3-yl]-3-methyl-2-oxo-2,3-dihydro-1H-benzimidazol-5-yl}propyl)piperazin-1-yl]pyrimidin-4-yl}-1,3-thiazol-2-yl)bicyclo[2.2.2]octan-1-yl]methyl}-2,3,5-trifluoro-4-hydroxybenzamide] | 0.31 nM | 82% |
| O=C1CCC(N2Cc3c(OCc4ccc(CN5CCN(c6ccc7cn(C8CCC(CNC(=O)c9cc(F)c(O)c(F)c9)CC8)nc7c6)CC5)cc4)cccc3C2=O)C(=O)N1 (racemic) [Example 6, N-{[(1r,4r)-4-{6-[4-({4-[({2-[(3RS)-2,6-Dioxopiperidin-3-yl]-1-oxo-2,3-dihydro-1H-isoindol-4-yl}oxy)methyl]phenyl}methyl)piperazin-1-yl]-2H-indazol-2-yl}cyclohexyl]methyl}-3,5-difluoro-4-hydroxybenzamide] | 1.4 nM | 76* % |
| Cl.Cn1c(=O)n(C2CCC(=O)NC2=O)c2ccc(CCN3CCN(c4cnc(-c5ccc6cn(C7CCC(CNC(=O)c8cc(F)c(O)c(F)c8F)CC7)nc6c5)cn4)CC3)cc21 (racemic) [Example 8, N-{[(1r,4r)-4-(6-{5-[4-(2-{1-[(3RS)-2,6-Dioxopiperidin-3-yl]-3-methyl-2-oxo-2,3-dihydro-1H-benzimidazol-5-yl}ethyl)piperazin-1-yl]pyrazin-2-yl}-2H-indazol-2-yl)cyclohexyl]methyl}-2,3,5-trifluoro-4-hydroxybenzamide, hydrochloride salt] | 0.21 nM | 87* % |
| Cl.Cn1c(=O)n(C2CCC(=O)NC2=O)c2ccc(CCN3CCN(c4ccc5cn(C6CCC(CNC(=O)c7cc(F)c(O)c(F)c7F)CC6)nc5c4)CC3)cc21 (racemic) [Example 9, N-{[(1r,4r)-4-{6-[4-(2-{1-[(3RS)-2,6-Dioxopiperidin-3-yl]-3-methyl-2-oxo-2,3-dihydro-1H-benzimidazol-5-yl}ethyl)piperazin-1-yl]-2H-indazol-2-yl}cyclohexyl]methyl}-2,3,5-trifluoro-4-hydroxybenzamide, hydrochloride salt] | 0.26 nM | 83* % |
| Cn1c(=O)n(C2CCC(=O)NC2=O)c2ccc(CCCN3CCN(c4ncc(-c5ccn6cc(C78CCC(CNC(=O)c9cc(F)c(O)c(F)c9F)(CC7)CC8)nc6c5)cn4)CC3)cc21.O=C(O)C(F)(F)F (racemic) [Example 12, N-{[4-(7-{2-[4-(3-{1-[(3RS)-2,6-Dioxopiperidin-3-yl]-3-methyl-2-oxo-2,3-dihydro-1H-benzimidazol-5-yl}propyl)piperazin-1-yl]pyrimidin-5-yl}imidazo[1,2-a]pyridin-2-yl)bicyclo[2.2.2]octan-1-yl]methyl}-2,3,5-trifluoro-4-hydroxybenzamide, trifluoroacetate salt] | 0.14 nM | 84% |
| Cn1c(=O)n(C2CCC(=O)NC2=O)c2ccc(CCCN3CCOC4(C3)CN(c3ncc(-c5ccc6cn(C7CCC(CNC(=O)c8cc(F)c(O)c(F)c8F)CC7)nc6c5)cn3)C4)cc21.O=C(O)C(F)(F)F (racemic) [Example 13, N-{[(1r,4r)-4-(6-{2-[8-(3-{1-[(3RS)-2,6-Dioxopiperidin-3-yl]-3-methyl-2-oxo-2,3-dihydro-1H-benzimidazol-5-yl}propyl)-5-oxa-2,8-diazaspiro[3.5]nonan-2-yl]pyrimidin-5-yl}-2H-indazol-2-yl)cyclohexyl]methyl}-2,3,5-trifluoro-4-hydroxybenzamide, trifluoroacetate salt] | 0.14 nM | 81% |
| Cn1c(=O)n(C2CCC(=O)NC2=O)c2ccc(CCN3CCN(c4cncc(-c5ccc6cn(C7CCC(CNC(=O)c8cc(F)c(O)c(F)c8F)CC7)nc6c5)n4)CC3)cc21.O=C(O)C(F)(F)F (racemic) [Example 14, N-{[(1r,4r)-4-(6-{6-[4-(2-{1-[(3RS)-2,6-Dioxopiperidin-3-yl]-3-methyl-2-oxo-2,3-dihydro-1H-benzimidazol-5-yl}ethyl)piperazin-1-yl]pyrazin-2-yl}-2H-indazol-2-yl)cyclohexyl]methyl}-2,3,5-trifluoro-4-hydroxybenzamide, trifluoroacetate salt] | 0.23 nM | 85% |
| Cn1c(=O)n(C2CCC(=O)NC2=O)c2ccc(CCCN3CCN(c4ccc(-c5noc(C67CCC(CNC(=O)c8cc(F)c(O)c(F)c8F)(CC6)CC7)n5)nn4)CC3)cc21.O=C(O)C(F)(F)F (racemic) [Example 15, N-{[4-(3-{6-[4-(3-{1-[(3RS)-2,6-Dioxopiperidin-3-yl]-3-methyl-2-oxo-2,3-dihydro-1H-benzimidazol-5-yl}propyl)piperazin-1-yl]pyridazin-3-yl}-1,2,4-oxadiazol-5-yl)bicyclo[2.2.2]octan-1-yl]methyl}-2,3,5-trifluoro-4-hydroxybenzamide, trifluoroacetate salt] | 0.31 nM | 85% |
